The text below walks through data of PMC9260180, “Blocking the Farnesyl Pocket of PDEδ Reduces Rheb-Dependent mTORC1 Activation and Survival of Tsc2-Null Cells” (Frontiers in Pharmacology, 2022).

The test system of data set [1] is Tsc2-null MEFs. The data set is described as follows: XTT viability assay in Tsc2-null MEFs. Type of data set: cell-based, mouse. To be noted: after 24 h, Deltasonamide 1 6 µM, rapamycin 20 nM. The method, then: (§1) We used XTT based-Cell Proliferation Kit (Biological Industries, USA) according to the manufacturer’s instructions to assess cell viability and proliferation. Briefly, Tsc2-null or Tsc2-wt MEF cells were seeded in 96-well plates and grown in DMEM without phenol red (Biological Industries, Cromwell, USA) at 37°C in 5% CO2. […] After 4 h of incubation, viable cells were detected by measuring the absorbance at 450nm/630 nm using TECAN Infinite® 200 PRO microplate reader (Tecan Group Ltd. Männedorf, Switzerland). The results were expressed as a percentage of absorbance relative to the control group.
For orientation: Formazan colour is commonly taken as a measure of viable cells.

Data set [2] concerns Tsc2-null MEFs. Briefly: BrdU assay in Tsc2-null MEFs. Format: cell-based, mouse. To be noted: 24 h, Deltasonamide 1 6 µM, rapamycin 20 nM. The method, then: BrdU (5-Bromo-2-deoxyuridine) labeling, and detection kit II (Roche, Basel, Switzerland) were used for the analysis. Briefly, cells were labeled 45 min with 50 µM BrdU and fixed for 20 min at […] with a fixing solution (15 mM glycine pH 2.0, 70% ethanol). Then, cells were incubated with anti-BrdU antibody (1:20 dilution) and nucleases in incubation buffer (66 mM Tris, 0.66 mM MgCl2, 1 mM β-mercaptoethanol) for 30 min at 37°C in a wet chamber. For secondary antibody, Alexa 555 anti-mouse conjugated (1:500 dilution) was used. The nuclei were labeled with Hoechst 33342 diluted 1:250. Finally, the samples were mounted on a slide with DAKO mounting medium. At least 3 images were captured using Olympus CKX41 fluorescence microscope for each condition. BrdU positive cells were analyzed using ImageJ software.
On the technique in general: Dividing cells build labelled thymidine or BrdU into new DNA.

The test system of data set [3] is phospho-4EBP1 (Thr37/46, Thr70) in Tsc2-null MEFs. The data set is described as follows: 4EBP1 phosphorylation by Western blot in Tsc2-null MEFs. Format: cell-based, mouse. The following applies: 24 h; for effect on 4EBP1 phosphorylation (p4EBP1 levels, top band): 6 µM; for change in electrophoretic pattern of total and phosphorylated 4EBP1: Deltasonamide 1 6 µM, rapamycin 20 nM. The method, then: (§2) p53−/− Tsc2+/+ mouse embryonic fibroblast (MEF) and p53−/− Tsc2−/− MEF cells (hereinafter referred to as Tsc2-wt and Tsc2-null MEFs) were kindly provided by David J. Kwiatkowski (Harvard Medical School, Boston, MA, USA). MEF cells were cultured in Dulbecco’s modified Eagles’s medium (DMEM) (Corning, New York, USA), supplemented with 100 μg/ml streptomycin (HyClone), 100 U/ml penicillin (HyClone), 10% fetal bovine serum (Biological Industries, Cromwell, USA) and incubated at 37°C in 5% CO2.
(§3) Proteins were extracted in cold lysis buffer (50 mM Tris-HCl pH 7.4; 10% glycerol; 200 mM NaCl2; 2.5 mM MgCl2; 1% Triton X-100; 1/100 protease inhibitors; 1/100 phosphatase inhibitors) and the protein concentration was determined by Bradford assay. Total proteins were denaturized in loading buffer (50 mM Tris-HCl pH 6.8; 2% SDS; 0.1% bromophenol blue; 10% glycerol; 1% β-mercaptoethanol) by boiling for 5 min, separated by SDS-PAGE, and transferred to Polyvinylidene fluoride (PVDF) membrane (MilliporeSigma, Burlington, USA). For immunoblotting, all primary antibodies were diluted 1:1.000, except for anti-β-Actin antibody (1:10000 dilution). Secondary antibodies were diluted 1:10000. Immunolabeled proteins were detected using ECL Western Blotting Detection Reagent (GE Healthcare, Chicago, USA) and visualized in Syngene PXi6 Documentation System (Frederick, MD, USA).

Data set [4] deals with mTORC1 signaling in Tsc2-wt MEFs. Briefly: mTORC1 signaling by immunoblotting in Tsc2-wt MEFs. The following applies: 4 h and 24 h, Deltasonamide 1 6 µM, rapamycin 20 nM. Type of data set: cell-based, mouse. The method, then: as §3
Supplementary Figure 4. […].
and 24 h (right panel). Lysates were characterized by immunoblotting of the indicated proteins. Results
are representative of three independent experiments.
(§4) (1 picture or pasted object on this page, not shown here)
Background: Immunoblotting shows a protein as a band on a membrane.

Another data set relates to Caco-2 cells. The data set is described as follows: Caco-2 permeability assay. The method, then:
To measure cellular permeability, Caco-2 cells were seeded on a transwell membrane in a 24-well format and grown for 3 weeks to form a monolayer of differentiated cells.

The test system of a further data set is Smad/Smurf. Briefly: yeast two-hybrid LacZ quantitative measurement, Smad/Smurf control interaction. The following applies: 7 and 24 h, titrated concentrations.
For data set [5], the system named is Rheb localization in Tsc2-wt MEF cells. Briefly: GFP-Rheb cellular localization by confocal microscopy in Tsc2-wt MEFs. Type of data set: cell-based, mouse. The following applies: Tsc2-wt MEF cells with GFP-Rheb, 6 µM, 24 h. The method, then:
For GFP proteins, Tsc2-wt MEF cells were electroporated with 3 µg of pEGFP-C1-RhebWT (GFP-Rheb) or pEGFP-C1 (GFP only) using NEON™ Transfection System (Invitrogen). Briefly, 200.000 cells were electroporated with the 10 µl tips at 1100 V for 30 mseg (one pulse). […] Cells were fixed with 4% w/v paraformaldehyde (PFA) for 10 min and permeabilized with 0.1% Triton X-100 in Phosphate-Buffered Saline (PBS) for 30 min. Then, samples were blocked for 1 h with 3% BSA-PBS and incubated overnight with primary antibody (1:200 dilution) in a dark/wet chamber at 4°C. Next, fixed cells were incubated with secondary antibody (1:500 dilution) and Hoechst (1:250 dilution) for 1 h in the dark/wet chamber at room temperature. The coverslips were mounted on a slide with DAKO mounting medium (Agilent, Santa Clara, USA). Images were analyzed by confocal fluorescence microscopy using the LSM780 NLO Confocal Spectral Microscope (Carl Zeiss, Jena, Germany).
Supplementary Figure 5. Deltasonamide 1 affects the cellular localization of Rheb. Tsc2-wt MEF cells were transfected with pEGFP-C1-GFP-RhebWT (GFP -Rheb) or pEGFP-C1 (GFP only) and treated with 6µM Deltas onamide 1 or DMSO for 24 hours. GFP-Rheb and GFP levels were analyzed by immunofluorescence and confocal microscopy. Scale bar = 20 µm.
as §4

Data set [6] concerns Tsc2-null MEFs. Briefly: Live/Dead and CytoTox-Glo cell assay in Tsc2-null MEFs. The following applies: Deltasonamide 1 6 µM, rapamycin 20 nM; for effect on cell numbers: vs DMSO.
A further data set deals with Tsc2-wt MEFs. Briefly: XTT viability assay in Tsc2-wt MEFs. Format: cell-based, mouse. The method, then: as §1
Data set [7] concerns phospho-S6 ribosomal protein (Ser235/236) in Tsc2-null MEFs. Briefly: S6 phosphorylation (pS6) by Western blot in Tsc2-null MEFs. Format: cell-based, mouse. The following applies: 0.5-6 µM, 24 h. The method, then: as §2
Proteins were extracted in cold lysis buffer (50 mM Tris-HCl pH 7.4; 10% glycerol; 200 mM NaCl2; 2.5 mM MgCl2; 1% Triton X-100; 1/100 protease inhibitors; 1/100 phosphatase inhibitors) and the protein concentration was determined by Bradford assay. […] Immunolabeled proteins were detected using ECL Western Blotting Detection Reagent (GE Healthcare, Chicago, USA) and visualized in Syngene PXi6 Documentation System (Frederick, MD, USA).
For GFP proteins, Tsc2-wt MEF cells were electroporated with 3 µg of pEGFP-C1-RhebWT (GFP-Rheb) or pEGFP-C1 (GFP only) using NEON™ Transfection System (Invitrogen). […] Images were analyzed by confocal fluorescence microscopy using the LSM780 NLO Confocal Spectral Microscope (Carl Zeiss, Jena, Germany).

In data set [8] the test system is phospho-p70 S6 kinase (Thr389) in Tsc2-null MEFs. The data set is described as follows: S6K phosphorylation (Thr389) by Western blot in Tsc2-null MEFs. To be noted: 24 h.
From the text: Levels of phospho-p70 S6 kinase (Thr389) (pS6K) were detected by Western blot and measured using densitometric analysis.
Data set [9] has as its system EGF-induced S6 phosphorylation in pancreatic cancer cell lines. Also noted: method as in Papke et al., 2016. To be noted: another pancreatic cancer cell line; ref Papke et al., 2016; cited from earlier work.

Values joined by “and” are separate entries in the source; they are usually repeats but may differ in a detail not shown here. Identical values can stand only once.

Method for Smad/Smurf: As a control, a yeast two-hybrid was performed using Smad (bait), Smurf (prey), and the empty vectors. To verify positive clones, diploid cells were grown on selective media either lacking tryptophan and leucine (DO-2) or lacking tryptophan, leucine, and histidine (DO-3). To detect lacZ gene expression, diploid cells co-transformed with bait and prey constructs were grown on DO-2 medium supplemented with X-gal substrate. […] To detect lacZ gene expression, diploid cells co-transformed with bait and prey constructs were grown on DO-2 medium supplemented with X-gal substrate. Co-transformed cells able to grow on DO-2 medium and form blue colonies in the presence of X-gal were considered positive bait-prey interaction.

On to `CNc1nccc(CN(CC2CCNCC2)S(=O)(=O)c2ccc(S(=O)(=O)N(Cc3ccc(Cl)cc3)C3CCCC3)cc2)n1` [Deltasonamide 1], for which the “effect on cell viability (XTT)” value with Tsc2-null MEFs [1] is given as “significantly diminished”. Further, the “effect on BrdU incorporation” value in the data set with Tsc2-null MEFs [2] is on record as “significantly reduced”. Besides, in data set [3], the “effect on 4EBP1 phosphorylation (p4EBP1 levels, top band)” value is “could not detect a significant effect”; the “change in electrophoretic pattern of total and phosphorylated 4EBP1” value is given as “caused the appearance of lower molecular weight bands”. Also, the “effect on mTORC1 activity/signaling” value in [4] was “did not affect”. In the data set with Caco-2 cells (10 µM, 2 h, 37°C), the “Caco-2 (pH 6.5/7.4) Papp (A→B)” value is 1.6 10^−6 cm/s and 1.56 10^−6 cm/s; the “Caco-2 (pH 6.5/7.4) Papp (B→A)” value is 13.67 10^−6 cm/s. The “effect on the interaction between Smad and Smurf” value in the data set on Smad/Smurf is “not affected”. Further, the “effect on intracellular Rheb distribution” value in data set [5] is “disrupted”. Moreover, in the data set with Tsc2-null MEFs [6] (24 h), the “effect on dead cells” value was “not associated with an increase in dead cells” and the “effect on cell numbers” value was “significantly decreased”. The “effect on percentage of dead cells” value with Tsc2-null MEFs [6] (48 h) is reported as “significantly increased”. Also, the “effect on cell viability (XTT)” value with Tsc2-wt MEFs (72 h, Deltasonamide 1 6 µM) is “reduced”. The “effect on S6 phosphorylation (pS6)” value in data set [7] was “dose-dependently reduced”. Further, the “LogIC50 of pS6K levels (Figure 3)” value in data set [8] (0.5–8 µM) is -5.347.

As to `Cc1ccc(-n2nc3c(=O)n(CCCC(=O)NCC(C)c4ccccc4)nc(C)c3c2C)cc1` (stereo not shown) [Deltazinone 1], the “effect on 4EBP1 phosphorylation (p4EBP1 levels, top band)” value in data set [3] is “ineffective”. Further, the “effect on EGF-induced S6 phosphorylation” value in [9] is reported as “ineffective”. For the same compound, in the data set with Caco-2 cells (Caco-2, pH 6.5), the “Caco-2 (pH 6.5/7.4) Papp (A→B)” value is listed as 41.1 10^−6 cm/s and the “Caco-2 (pH 6.5/7.4) Papp (B→A)” value was 25.1 10^−6 cm/s. Moreover, the “effect on the interaction between Smad and Smurf” value with Smad/Smurf is given as “not affected”. The “effect on S6 phosphorylation (pS6)” value in [7] was “did not affect”. For the same compound, in data set [8] (6 µM), the “effect on S6K phosphorylation” value is on record as “ineffective”.

`CO[C@H]1C[C@@H]2CC[C@@H](C)[C@@](O)(O2)C(=O)C(=O)N2CCCC[C@H]2C(=O)O[C@H]([C@H](C)C[C@@H]2CC[C@@H](O)[C@H](OC)C2)CC(=O)[C@H](C)/C=C(\C)[C@@H](O)[C@@H](OC)C(=O)[C@H](C)C[C@H](C)/C=C/C=C/C=C/1C` [rapamycin]: the “effect on cell viability (XTT)” value with Tsc2-null MEFs [1] was “significantly diminished”; in the data set with Tsc2-wt MEFs (48 h, rapamycin 20 nM), “significantly affected”. In addition, the “effect on BrdU incorporation” value in the data set on Tsc2-null MEFs [2] is recorded as “significantly reduced”. Also, the “change in electrophoretic pattern of total and phosphorylated 4EBP1” value in [3] was “caused the appearance of lower molecular weight bands”. Moreover, the “effect on mTORC1 activity/signaling” value in data set [4] was “significantly affected”. Besides, the “effect on cell numbers” value in the data set with Tsc2-null MEFs [6] (24 h) was “significantly decreased”.
